According to patent US11618747B2, “LXR modulators with bicyclic core moiety” (OrsoBio, Inc., priority 2018, dated 2023):
Where two headings read alike, the source gives them in different places.

Legend:
[1] = target: T1, ligand-binding domain (LBD) of LXRβ (Homo sapiens, UniProt P55055, DUP175-175); assay: LXR Gal4 reporter transient transfection assay (LBD-M2H Gal4β); format: cell-based; conditions: HEK293 cells
T1 construct: LXRβ (amino acids 156-461); expressed in transfected cells; host or cells: HEK293
T1 sequence (P55055 with tags, fused parts or gaps DUP175-175 limits assumed): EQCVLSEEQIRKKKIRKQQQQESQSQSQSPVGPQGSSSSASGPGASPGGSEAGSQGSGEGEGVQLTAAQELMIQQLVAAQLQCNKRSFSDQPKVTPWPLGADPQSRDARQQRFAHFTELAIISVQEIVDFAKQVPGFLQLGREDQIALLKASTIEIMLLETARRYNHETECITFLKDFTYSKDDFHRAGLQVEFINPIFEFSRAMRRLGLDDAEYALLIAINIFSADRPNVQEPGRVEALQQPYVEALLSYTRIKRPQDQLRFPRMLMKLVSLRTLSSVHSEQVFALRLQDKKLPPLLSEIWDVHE
How it was run: (§1)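 Mammalian two-hybrid in HEK293 cells transiently transfected with NFkB-AD-fused FL or LBD LXR plus GAL4-BD-fused SRC1 or NCoR cofactor domains and GAL4-responsive firefly luciferase reporter, Renilla-normalized. Compound added 4 h post-transfection (≤0.2% DMSO), 16 h incubation, luminescence read.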

[2] = target: T2, ligand-binding domain (LBD) of LXRα (Homo sapiens, UniProt Q13133); assay: LXR Gal4 reporter transient transfection assay (LBD-M2H Gal4α); format: cell-based; conditions: HEK293 cells
T2 construct: expressed in transfected cells; host or cells: HEK293
T2 sequence (Q13133 155-447): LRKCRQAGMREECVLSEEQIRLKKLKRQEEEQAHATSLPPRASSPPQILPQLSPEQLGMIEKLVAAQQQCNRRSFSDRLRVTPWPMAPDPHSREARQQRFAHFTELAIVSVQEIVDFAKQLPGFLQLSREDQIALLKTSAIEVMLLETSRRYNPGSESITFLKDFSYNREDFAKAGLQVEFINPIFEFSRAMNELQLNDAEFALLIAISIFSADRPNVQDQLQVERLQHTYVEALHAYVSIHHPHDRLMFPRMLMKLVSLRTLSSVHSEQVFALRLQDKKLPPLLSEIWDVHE
How it was run: as §1

[3] = Pharmacokinetics in mice after single oral dosing (blood/plasma and liver exposure); format: in vivo, mice (C57/bl6/J); conditions: 20 mg/kg single oral dose
Procedure: The pharmacokinetics of the compounds was assessed in mice after single dosing and oral administrations. Blood/plasma and liver exposure was measured via LC-MS.
The study design was as follows:
Animals: C57/bl6/J (Janvier) males
Diet: standard rodent chow
Animal handling: animals were withdrawn from food at least 12 h before administration
Design: single dose oral administration, n=3 animals per group
Sacrifice: at stated time point (4, 12 or 24 h) after administration
Bioanalytics: LC-MS of liver and blood/plasma samples

[4] = LXRβ LBD, read-out: LBD-M2H Gal4β (EC50 range)
[5] = LXRα LBD, read-out: LBD-M2H Gal4α (EC50 range)

SMILES: Cc1ccc(S(=O)(=O)n2c(-c3cccc(N4CC(C(=O)O)C4)c3)c(-c3ccsc3C#N)c3cc(Cl)ccc32)cc1 [3/44]
- EC50 [1, 4]: < 100 nM
- EC50 [2, 5]: < 100 nM

SMILES: Cc1ccc(S(=O)(=O)n2c(-c3cccc(-c4ccc(C(=O)O)cc4)c3)c(-c3ccsc3C#N)c3cc(F)ccc32)cc1C [23/2]
- blood/plasma exposure ([3]; time point 4 h): B (B: 300 nM to ≤1 μM)
- liver exposure ([3]; time point 4 h): D (D: >3 μM)
- liver/blood ratio ([3]; time point 4 h): C (C: 10 to ≤30)

SMILES: Cc1ccc(S(=O)(=O)n2c(-c3cccc(-c4ccc(C(=O)O)cc4Cl)c3)c(-c3ccsc3C#N)c3cc(F)ccc32)cc1 [3/48]
- blood/plasma exposure (below LLOQ, LLOQ given) ([3]; time point 12 h): (1.2 ng/mL)
- liver exposure ([3]; time point 12 h): A (A: <300 nM)

SMILES: Cc1ccc(S(=O)(=O)n2c(-c3cccc(N4CC(C(=O)O)C4)c3)c(-c3ccsc3C#N)c3cc(F)ccc32)cc1 [3/32]
- LBD-M2H Gal4β efficacy (value in brackets) [1]: 81%
- EC50 ([1]; read-out: LBD-M2H Gal4β potency): 13 nM
- LBD-M2H Gal4α efficacy (value in brackets) [2]: 103%
- EC50 ([2]; read-out: LBD-M2H Gal4α potency): 106 nM

SMILES: Cc1ccc(S(=O)(=O)n2c(-c3cccc(N4CC(C(=O)O)C4)c3)c(-c3ccsc3C#N)c3cc(F)c(F)cc32)cc1 [3/42]
- EC50 [1, 4]: < 100 nM
- EC50 [2, 5]: 100 to 1000 nM

SMILES: Cc1ccc(S(=O)(=O)n2c(-c3cccc(-c4ccc(C(=O)O)cc4)c3)c(-c3ccsc3C#N)c3cc(F)ccc32)cc1 [5/3]
- blood/plasma exposure ([3]; time point 4 h): C (C: 100 nM to <300 nM)
- liver exposure ([3]; time point 4 h): C (C: 1 μM to ≤3 μM)
- liver/blood ratio ([3]; time point 4 h): C (C: 10 to ≤30)

SMILES: Cc1ccc(S(=O)(=O)n2c(-c3cccc(N4CC(C(=O)O)C4)c3)c(-c3ccsc3C#N)c3cc(F)c(Cl)cc32)cc1 [3/43]
- EC50 [1, 4]: 100 to 1000 nM
- EC50 [2, 5]: 100 to 1000 nM

SMILES: Cc1ccc(S(=O)(=O)n2c(-c3cccc(N4CC(C(=O)O)C4)c3)c(-c3ccsc3C#N)c3cc(C)ccc32)cc1 [3/46]
- EC50 [1, 4]: < 100 nM
- EC50 [2, 5]: < 100 nM
